Results published in patent US20030220524A1, “Sulfur containing compounds” (priority 2000, published 2003).

What was measured:
Assay type in all cases: cell-based
Aspergillus flavus = assay: Antifungal paper disk test, diameter of clear zone; details: for zone of inhibition at 100 µg/disc: read-out: Diameter (mm) of clear Zone A. flavus
Description: (§1) Sulfur compounds were tested for antifungal activity against pure cultures of Aspergillus niger and Aspergillus flavus supplied by Ward's Natural Science Ltd (St. Catharines, Ontario, Canada). They were maintained on Sabouraud Dextrose Agar.
(§2) For the test, 6 agar plugs (5 mm diameter) were cut from a 5-8 day old colony and homogenized in distilled, sterilized water (2 ml). A portion of this suspension (0.5 ml) was transferred aseptically to a Petri plate with Sabouraud Dextrose Agar (15 ml) and spread evenly over the entire surface. […] Each test compound was applied to the disks as a solution (50 mg compound/10 ml acetone). Control disks were treated with neat acetone (20 μl). Test plates with fungal homogenates and disks were incubated at 18-20° C. for 2 days. For each test four replicate plates were used. The diameter of the clear zone surrounding the disk was taken as the indicator of antifungal activity.

Aspergillus niger = assay: Antifungal paper disk test, diameter of clear zone; details: for zone of inhibition at 100 µg/disc: read-out: Diameter (mm) of clear Zone A. niger
Description: as §1, §2

[1] = system: Aspergillus niger and Aspergillus flavus; assay: Antifungal activity; details: in words; for Antifungal activity: dose not given
Description: as §1
For the test, 6 agar plugs (5 mm diameter) were cut from a 5-8 day old colony and homogenized in distilled, sterilized water (2 ml). A portion of this suspension (0.5 ml) was transferred aseptically to a Petri plate with Sabouraud Dextrose Agar (15 ml) and spread evenly over the entire surface. Each plate was supplied with four evenly spaced paper disks (7 mm, Whatman Number 1 filter paper) containing the test compound (0, 25, 50 and 100 μg respectively). Each test compound was applied to the disks as a solution (50 mg compound/10 ml acetone). Control disks were treated with neat acetone (20 μl). Test plates with fungal homogenates and disks were incubated at 18-20° C. for 2 days. For each test four replicate plates were used. The diameter of the clear zone surrounding the disk was taken as the indicator of antifungal activity.

[2] = Aspergillus flavus, 25 μg/disk, acetone
[3] = Aspergillus niger, 25 μg/disk, acetone
[4] = 0.25 μg/disk, Appl'n Solvent Acetone
[5] = Aspergillus flavus, 100 μg/disk, acetone
[6] = Aspergillus niger, 100 μg/disk, acetone

With “Methyl methanethiosulfonate [CH3SO2SCH3]” the “Diameter (mm) of clear Zone A. flavus” value (Aspergillus flavus; 100 μg/disk, acetone) was 0 mm, the “Diameter (mm) of clear Zone A. niger” value (Aspergillus niger; 100 μg/disk, acetone) was 3.3 mm and the Antifungal activity [1] was “effective against only one of the test fungi”.
CS(=O)(=O)c1ccccc1SSc1ccccc1S(C)(=O)=O [[o-CH3SO2(C6H4)S]2, o-methylsulfonylphenyl disulphide] showed a zone of inhibition at 25 µg/disc (Aspergillus flavus; [2]) of 3 mm and a zone of inhibition at 25 µg/disc (Aspergillus niger; [3]) of 3.3 mm.
In the case of CSSCS(=O)(=O)c1ccccc1 [C6H5SO2CH2SSCH3, α-phenylsulfonyl dimethyl disulphide], the “Diameter (mm) of clear Zone A. flavus” value (Aspergillus flavus; 25 μg/disk, acetone) is reported as 4.2 mm and the “Diameter (mm) of clear Zone A. niger” value (Aspergillus niger; 25 μg/disk, acetone) is reported as 5.5 mm.
For CSSCS(C)(=O)=O [CH3SO2CH2SSCH3, α-methylsulfonyl dimethyl disulphide], the “Diameter (mm) of clear Zone A. flavus” value (Aspergillus flavus; 25 μg/disk, acetone) was 3.8 mm and the “Diameter (mm) of clear Zone A. niger” value (Aspergillus niger; 25 μg/disk, acetone) was 2.7 mm.
In the case of CSS(=O)(=O)c1ccc(C)cc1 [p-CH3(C6H4)SO2SCH3], the “Diameter (mm) of clear Zone A. flavus” value (Aspergillus flavus; 25 μg/disk, acetone) is reported as 3.6 mm and the “Diameter (mm) of clear Zone A. niger” value (Aspergillus niger; 25 μg/disk, acetone) is reported as 1.4 mm.
In the case of Cc1ccc(S(=O)(=O)Sc2ccccc2)cc1 [p-CH3(C6H4)SO2S(C6H5)], the “Diameter (mm) of clear Zone A. flavus” value (Aspergillus flavus; 25 μg/disk, acetone) is reported as 3.3 mm and the “Diameter (mm) of clear Zone A. niger” value (Aspergillus niger; 25 μg/disk, acetone) is reported as 4.3 mm.
In the case of “1-p-toluenesulfonyl-4-propionoxy-2,3-dithiabutane [C2H5OC(O)CH2SSCH2SO2(C6H4)—p-CH3]”, the “Diameter (mm) of clear Zone A. flavus” value (Aspergillus flavus; [4]) is reported as 5.2 mm and the “Diameter (mm) of clear Zone A. niger” value (Aspergillus niger; [4]) is reported as 8.5 mm.
CCSSCS(C)(=O)=O [CH3SO2CH2SSCH2CH3, 2,4,5-trithiaheptane 2,2,-dioxide] was tested, and the “Diameter (mm) of clear Zone A. flavus” value (Aspergillus flavus; 25 μg/disk, acetone) was 3.3 mm and the “Diameter (mm) of clear Zone A. niger” value (Aspergillus niger; 25 μg/disk, acetone) was 4.8 mm.
In the case of CCC(=O)OCSSC [CH3CH2C(O)OCH2SSCH3, 2,3-dithiabutyl propionate], the zone of inhibition at 25 µg/disc (Aspergillus flavus; [2]) is reported as 7.6 mm and the zone of inhibition at 25 µg/disc (Aspergillus niger; [3]) is reported as 14.8 mm.
CS(=O)(=O)Oc1ccc([N+](=O)[O-])cc1 [p-O2N(C6H4)OSO2CH3, p-nitrophenyl methanesulfonate] was tested, and the zone of inhibition at 100 µg/disc (Aspergillus flavus; [5]) was 0 mm and the zone of inhibition at 100 µg/disc (Aspergillus niger; [6]) was 0 mm.
Cc1ccc(S(=O)(=O)Sc2ccc([N+](=O)[O-])cc2)cc1 [p-CH3(C6H4)SO2S(C6H4)NO2—p, p-Nitrophenyl p-Toluenethiosulfonate] was tested, and the “Diameter (mm) of clear Zone A. flavus” value (Aspergillus flavus; 25 μg/disk, acetone) was 2.0 mm and the “Diameter (mm) of clear Zone A. niger” value (Aspergillus niger; 25 μg/disk, acetone) was 3.0 mm.
In the case of CSSc1ccccc1 [Compound C6H5SSCH3, phenyl methyl disulphide], the zone of inhibition at 100 µg/disc (Aspergillus flavus; [5]) is reported as 0 mm, the zone of inhibition at 100 µg/disc (Aspergillus niger; [6]) is reported as 0 mm and the “Antifungal activity / fungitoxicity” value ([1]; 100 μg/disk) is reported as “no observable fungitoxicity”.
CCS(=O)(=O)SC [CH3CH2SO2SCH3, Methyl Ethanethiosulfonate] was tested, and the “Diameter (mm) of clear Zone A. flavus” value (Aspergillus flavus; 50 μg/disk, acetone) was 1.3 mm and the “Diameter (mm) of clear Zone A. niger” value (Aspergillus niger; 50 μg/disk, acetone) was 2.0 mm.
With CS(=O)(=O)Oc1ccc(S(C)(=O)=O)cc1 [p-CH3SO2(C6H4)OSO2CH3, p-methylsulfonylphenyl methanesulfonate] the zone of inhibition at 100 µg/disc (Aspergillus flavus; [5]) was 0 mm and the zone of inhibition at 100 µg/disc (Aspergillus niger; [6]) was 0 mm.
For O=S(=O)(Sc1ccccc1)c1ccccc1 [(C6H5)SO2S(C6H5)], the “Diameter (mm) of clear Zone A. flavus” value (Aspergillus flavus; 25 μg/disk, acetone) was 3.8 mm and the “Diameter (mm) of clear Zone A. niger” value (Aspergillus niger; 25 μg/disk, acetone) was 3.9 mm.
COC(=O)CSS(=O)(=O)c1ccc(C)cc1 [p-CH3(C6H4)SO2SCH2CO2CH3, Carbomethoxymethyl p-Toluenethiosulfonate] was tested, and the “Diameter (mm) of clear Zone A. flavus” value (Aspergillus flavus; 50 μg/disk, acetone) was 1.7 mm and the “Diameter (mm) of clear Zone A. niger” value (Aspergillus niger; 50 μg/disk, acetone) was 2.9 mm.
CSSC [CH3SSCH3, dimethyl disulphide] was tested, and the “Diameter (mm) of clear Zone A. flavus” value (Aspergillus flavus; 100 μg/disk, acetone) was 0 mm, the “Diameter (mm) of clear Zone A. niger” value (Aspergillus niger; 100 μg/disk, acetone) was 0 mm and the Antifungal activity [1] was “no antifungal behaviour”.
COC(=O)c1ccccc1SSC [o-CH3OC(O)(C6H4)SSCH3, methyl-o(methyldithio)benzoate] was tested, and the “Diameter (mm) of clear Zone A. flavus” value (Aspergillus flavus; 25 μg/disk, acetone) was 4.3 mm and the “Diameter (mm) of clear Zone A. niger” value (Aspergillus niger; 25 μg/disk, acetone) was 2.8 mm.
For CS(=O)(=O)c1ccc(SSc2ccc(S(C)(=O)=O)cc2)cc1 [[p-CH3SO2(C6H4)S]2, p-methylsulfonylphenyl disulphide], the zone of inhibition at 25 µg/disc (Aspergillus flavus; [2]) was 6.9 mm and the zone of inhibition at 25 µg/disc (Aspergillus niger; [3]) was 4 mm.
With CSCSSCSC [(CH3SCH2S)2, reference compound] the “Diameter (mm) of clear Zone A. flavus” value (Aspergillus flavus; 100 μg/disk, acetone) was 2.3 mm and the “Diameter (mm) of clear Zone A. niger” value (Aspergillus niger; 100 μg/disk, acetone) was 2.5 mm.
With “o-Carbomethoxyphenyl Methanethiosulfonate [o-CH3SO2S(C6H4)CO2CH3]” the “Diameter (mm) of clear Zone A. flavus” value (Aspergillus flavus; 100 μg/disk, acetone) was 0 mm and the “Diameter (mm) of clear Zone A. niger” value (Aspergillus niger; 100 μg/disk, acetone) was 0 mm.
In the case of CSSCCOC(C)=O [CH3SSCH2CH2OC(O)CH3, 3,4-dithiapentyl acetate], the zone of inhibition at 100 µg/disc (Aspergillus flavus; [5]) is reported as 0 mm and the zone of inhibition at 100 µg/disc (Aspergillus niger; [6]) is reported as 0 mm.
For Cc1ccc(S(=O)(=O)CS)cc1 [p-CH3(C6H4)SO2CH2SH, α-p-toluenesulfonyl methyl mercaptan], the “Diameter (mm) of clear Zone A. flavus” value (Aspergillus flavus; 100 μg/disk, acetone) was 0 mm and the “Diameter (mm) of clear Zone A. niger” value (Aspergillus niger; 100 μg/disk, acetone) was 0 mm.
With CSSCOC(=O)c1ccccc1 [CH3SSCH2OC(O)Ph, 2,3-dithiabutyl benzoate] the zone of inhibition at 25 µg/disc (Aspergillus flavus; [2]) was 8.4 mm and the zone of inhibition at 25 µg/disc (Aspergillus niger; [3]) was 6.1 mm.
For CS(=O)(=O)Sc1ccc([N+](=O)[O-])cc1 [p-CH3SO2S(C6H4)NO2, p-Nitrophenyl Methanethiosulfonate], the “Diameter (mm) of clear Zone A. flavus” value (Aspergillus flavus; 25 μg/disk, acetone) was 1.2 mm and the “Diameter (mm) of clear Zone A. niger” value (Aspergillus niger; 25 μg/disk, acetone) was 1.9 mm.
CCC(=O)OCSSCC(=O)OC [CH3OC(O)CH2SSCH2OC(O)C2H5, methyl 3,4-dithia-5-propionoxypentanoate] was tested, and the zone of inhibition at 0.25 µg/disc (Aspergillus flavus; Aspergillus flavus, 0.25 μg/disk, Appl'n Solvent Acetone) was 2.3 mm, the zone of inhibition at 0.25 µg/disc (Aspergillus flavus; Aspergillus flavus, 0.25 μg/disk, Appl'n Solvent DMSO) was 7.9 mm and the zone of inhibition at 0.25 µg/disc (Aspergillus niger; Aspergillus niger, 0.25 μg/disk, Appl'n Solvent Acetone) was 3 mm. The zone of inhibition at 0.25 µg/disc (Aspergillus niger; Aspergillus niger, 0.25 μg/disk, Appl'n Solvent DMSO) was 11.7 mm.
Compound CSSc1cccc([N+](=O)[O-])c1 [m-O2N(C6H4)SSCH3, methyl m-nitrophenyl disulphide] has a zone of inhibition at 10 µg/disc (Aspergillus flavus; Aspergillus flavus, 10 μg/disk, acetone) of 1.8 mm and a zone of inhibition at 10 µg/disc (Aspergillus niger; Aspergillus niger, 10 μg/disk, acetone) of 1.7 mm.
With CSCS(C)(=O)=O [CH3SO2CH2SCH3, 2,4-dithiapentane 2,2-dioxide] the zone of inhibition at 100 µg/disc (Aspergillus flavus; [5]) was 0 mm and the zone of inhibition at 100 µg/disc (Aspergillus niger; [6]) was 0 mm.
